Experimental data from PMC5884652, “New antimicrobial peptide kills drug-resistant pathogens without detectable resistance” (Oncotarget, 2018).
Values after ≈ are worked out from the molar mass of the structure shown. Where two headings read alike, the source gives them in different places. Ends that are not written are not given here.

Legend:
E. coli ATCC 25922 = type: cell-based, Escherichia coli; settings: 10 mM sodium phosphate buffer, 10% LB, 37° C, 24 h, mean of 3 experiments
Excerpt: (§1) The method for peptide synthesis has been described in detail previously. E. coli ATCC 25922 (LB media), P. aeruginosa ATCC 15692 (NB+0.5% NaCl media), Listeria monocytogenes ATCC 3710 (LB media), Staphylococcus epidermidis ATCC 12228 (LB media), and S. aureus ATCC 29213 (TSB media) were obtained from the American Type Culture Collection (Manassas, VA, USA). Bacillus subtilis KCTC 1998 (LB media), Salmonella typhimurium KCTC 1926 (NB media), and Proteus vulgaris KCTC 2433 (NB media) were obtained from the Korean Collection for Type Cultures (Jeollabuk-do, Korea). E. coli CCARM 1238 was received from the Culture Collection of Antibiotic Resistant Microbes at Seoul Women’s University, Korea. Drug-resistant P. aeruginosa 3543, 3904, 3547, and 4007 and S. aureus 3126, 0027, 5157, 1635, 4761, 5159, 3359, 2122, 1630, 1870, 3511, 5156, and 3518 were resistant strains isolated from patients with otitis media in a Chonnam National University’s hospital.
(§2) The antibacterial activities of AMPs (melittin, clavaspirin, and its analogs) and conventional antibiotic drugs (erythromycin, gentamicin, ampicillin, and piperacidin) were determined using microdilution assays. Bacterial cells were cultured at 37° C in appropriate culture media at pH 5.5 or pH 7.4 until collection during the mid-log phase and suspended in 10 mM sodium phosphate buffer (pH 5.5 or pH 7.4) supplemented with 10% culture medium. Thereafter, 2× serial dilutions of each peptide (0.25–128 μM) or antibiotic (0.25–256 μM) were added to sterile 96-well plates, and aliquots of cell suspension (5 × 10^5 colony forming units (cfu)/mL) were seeded into each well. The samples were then incubated at 37° C for 24 h. At the end of the incubation, the minimum inhibitory concentrations (MICs) of the peptides were determined using a VERSA Max microplate reader (Molecular Devices Co., Sunnyvale, CA, USA) at a wavelength of 600 nm. […] MIC values were calculated as the mean of 3 independent experiments conducted in triplicate.

P. aeruginosa ATCC 15692 = type: cell-based, Pseudomonas aeruginosa; settings: 10 mM sodium phosphate buffer, 10% LB, 37° C, 24 h, mean of 3 experiments
Excerpt: as §1, with “E. coli ATCC 25922 (LB media), P. aeruginosa ATCC 15692 (NB+0.5% NaCl media), Listeria monocytogenes ATCC 3710 (LB media), Staphylococcus epidermidis ATCC 12228 (LB media), and S. aureus ATCC 29213 (TSB media) were obtained from the American Type Culture Collection (Manassas, VA, USA).” left out
as §2, with “Bacterial cells were cultured at 37° C in appropriate culture media at pH 5.5 or pH 7.4 until collection during the mid-log phase and suspended in 10 mM sodium phosphate buffer (pH 5.5 or pH 7.4) supplemented with 10% culture medium.” left out

[1] = test system: Bacillus subtilis KCTC 1998; type: cell-based; settings: 10 mM sodium phosphate buffer, 10% LB, 37° C, 24 h, mean of 3 experiments
Excerpt: as §1, §2

[2] = test system: Listeria monocytogenes ATCC 3710; type: cell-based; settings: 10 mM sodium phosphate buffer, 10% LB, 37° C, 24 h, mean of 3 experiments
Excerpt: as §1, §2

[3] = test system: Staphylococcus epidermidis ATCC 12228; type: cell-based; settings: 10 mM sodium phosphate buffer, 10% LB, 37° C, 24 h, mean of 3 experiments
Excerpt: as §1, §2

S. aureus ATCC 29213 = type: cell-based, Staphylococcus aureus; settings: 10 mM sodium phosphate buffer, 10% LB, 37° C, 24 h, mean of 3 experiments
Excerpt: as §1, with “E. coli ATCC 25922 (LB media), P. aeruginosa ATCC 15692 (NB+0.5% NaCl media), Listeria monocytogenes ATCC 3710 (LB media), Staphylococcus epidermidis ATCC 12228 (LB media), and S. aureus ATCC 29213 (TSB media) were obtained from the American Type Culture Collection (Manassas, VA, USA).” left out
as §2

[4] = test system: Proteus vulgaris KCTC 2433; type: cell-based; settings: 10 mM sodium phosphate buffer, 10% LB, 37° C, 24 h, mean of 3 experiments
Excerpt: as §1, with “Bacillus subtilis KCTC 1998 (LB media), Salmonella typhimurium KCTC 1926 (NB media), and Proteus vulgaris KCTC 2433 (NB media) were obtained from the Korean Collection for Type Cultures (Jeollabuk-do, Korea).” left out
as §2

[5] = test system: Salmonella typhimurium KCTC 1926; type: cell-based; settings: 10 mM sodium phosphate buffer, 10% LB, 37° C, 24 h, mean of 3 experiments
Excerpt: as §1, with “Bacillus subtilis KCTC 1998 (LB media), Salmonella typhimurium KCTC 1926 (NB media), and Proteus vulgaris KCTC 2433 (NB media) were obtained from the Korean Collection for Type Cultures (Jeollabuk-do, Korea).” left out
as §2

[6] = test system: human red blood cells (hRBCs); experiment: Hemolysis; type: cell-based; settings: PBS buffer containing 8% hRBCs, 1 h, 37° C, absorbance 414 nm, triplicate
Method: Fresh human red blood cells (hRBCs) from healthy donors were centrifuged at 800 × g and washed with phosphate-buffered saline (PBS) until the supernatant was clear. Twofold serial dilutions of the peptides in PBS were added to a 96-well plate, after which the hRBCs were added to obtain a final concentration of 8% (vol/vol). The samples were then incubated with mild agitation for 1 h at 37° C. The samples were then centrifuged at 800 × g for 10 min, and the absorbance of the supernatant was measured at 414 nm. All the measurements were performed in triplicate, and the percentages of hemolysis were calculated using equation 1: % hemolysis=[(A414 in peptide solution−A414 in PBS)/(A414 in […]−A414 in PBS)]×100 (1)
Where 100% hemolysis was defined as the absorbance measured from hRBCs exposed to 1% Triton X-100 and zero hemolysis was characterized using hRBCs alone in PBS [40].

[7] = test system: HaCaT (human keratinocyte) cells; experiment: Cytotoxicity, MTT assay; type: cell-based; settings: DMEM containing 10% FBS and 1% PS, 24 h, 37° C
Method: To examine the cytotoxic effects of the peptides, HaCaT (human keratinocyte) cells were cultured in Dulbecco’s modified Eagle’s medium (DMEM) supplemented with antibiotics (100 U/ml penicillin and 100 μg/ml streptomycin) and 10% fetal calf serum at 37° C in a humidified chamber under a 5% CO2 atmosphere. Growth inhibition was evaluated using 3-(4, 5-dimethylthizol-2-yl)-2, 5-diphenyltetrazolium bromide (MTT) assays to measure cell viability. After cells were seeded into a 96-well plate at a density of 2 × 10^4/well and incubated for 24 h, twofold serial dilutions of each peptide in DMEM were added to the wells, and the cells were incubated for an additional 24 h at 37° C. Thereafter, 10 μl of MTT (5 mg/ml) was added to each well, and the plate was incubated for 4 h. The supernatants were then removed, and 50 μl of DMSO was added to each well to dissolve any remaining precipitate. Finally, the absorbance at 570 nm was measured using a microtiter reader.

S. aureus 0027 = experiment: microbe, parasite or virus in culture; type: cell-based, Staphylococcus aureus; settings: Staphylococcus aureus, 0027; pH (I or II) not given; 10 mM sodium phosphate buffer, 10% LB; 37° C, 24 h; mean of 3 experiments
Excerpt: as §1, §2

S. aureus 1630 = experiment: microbe, parasite or virus in culture; type: cell-based, Staphylococcus aureus; settings: Staphylococcus aureus, 1630; pH (I or II) not given; 10 mM sodium phosphate buffer, 10% LB; 37° C, 24 h; mean of 3 experiments
Excerpt: as §1, §2

S. aureus 1635 = experiment: microbe, parasite or virus in culture; type: cell-based, Staphylococcus aureus; settings: Staphylococcus aureus, 1635; pH (I or II) not given; 10 mM sodium phosphate buffer, 10% LB; 37° C, 24 h; mean of 3 experiments
Excerpt: as §1, §2

S. aureus 1870 = experiment: microbe, parasite or virus in culture; type: cell-based, Staphylococcus aureus; settings: Staphylococcus aureus, 1870; pH (I or II) not given; 10 mM sodium phosphate buffer, 10% LB; 37° C, 24 h; mean of 3 experiments
Excerpt: as §1, §2

S. aureus 2122 = experiment: microbe, parasite or virus in culture; type: cell-based, Staphylococcus aureus; settings: Staphylococcus aureus, 2122; pH (I or II) not given; 10 mM sodium phosphate buffer, 10% LB; 37° C, 24 h; mean of 3 experiments
Excerpt: as §1, §2

S. aureus 3126 = experiment: microbe, parasite or virus in culture; type: cell-based, Staphylococcus aureus; settings: Staphylococcus aureus, 3126; pH (I or II) not given; 10 mM sodium phosphate buffer, 10% LB; 37° C, 24 h; mean of 3 experiments
Excerpt: as §1, §2

S. aureus 3359 = experiment: microbe, parasite or virus in culture; type: cell-based, Staphylococcus aureus; settings: Staphylococcus aureus, 3359; pH (I or II) not given; 10 mM sodium phosphate buffer, 10% LB; 37° C, 24 h; mean of 3 experiments
Excerpt: as §1, §2

S. aureus 3511 = experiment: microbe, parasite or virus in culture; type: cell-based, Staphylococcus aureus; settings: Staphylococcus aureus, 3511; pH (I or II) not given; 10 mM sodium phosphate buffer, 10% LB; 37° C, 24 h; mean of 3 experiments
Excerpt: as §1, §2

S. aureus 3518 = experiment: microbe, parasite or virus in culture; type: cell-based, Staphylococcus aureus; settings: Staphylococcus aureus, 3518; pH (I or II) not given; 10 mM sodium phosphate buffer, 10% LB; 37° C, 24 h; mean of 3 experiments
Excerpt: as §1, §2

S. aureus 4761 = experiment: microbe, parasite or virus in culture; type: cell-based, Staphylococcus aureus; settings: Staphylococcus aureus, 4761; pH (I or II) not given; 10 mM sodium phosphate buffer, 10% LB; 37° C, 24 h; mean of 3 experiments
Excerpt: as §1, §2

S. aureus 5156 = experiment: microbe, parasite or virus in culture; type: cell-based, Staphylococcus aureus; settings: Staphylococcus aureus, 5156; pH (I or II) not given; 10 mM sodium phosphate buffer, 10% LB; 37° C, 24 h; mean of 3 experiments
Excerpt: as §1, §2

S. aureus 5157 = experiment: microbe, parasite or virus in culture; type: cell-based, Staphylococcus aureus; settings: Staphylococcus aureus, 5157; pH (I or II) not given; 10 mM sodium phosphate buffer, 10% LB; 37° C, 24 h; mean of 3 experiments
Excerpt: as §1, §2

S. aureus 5159 = experiment: microbe, parasite or virus in culture; type: cell-based, Staphylococcus aureus; settings: Staphylococcus aureus, 5159; pH (I or II) not given; 10 mM sodium phosphate buffer, 10% LB; 37° C, 24 h; mean of 3 experiments
Excerpt: as §1, §2

Compound: FLRFIGSVIHGIGHLVHHIGVAL-NH2 [Clavaspirin]
- MIC, E. coli (E. coli ATCC 25922; pH 5.5 (I)): 2 µM
- MIC, E. coli (E. coli ATCC 25922; pH 7.4 (II)): 64 µM
- MIC, P. aeruginosa (P. aeruginosa ATCC 15692; pH 5.5 (I)): 32 µM
- MIC, P. aeruginosa (P. aeruginosa ATCC 15692; pH 7.4 (II)): >64 µM
- MIC, B. subtilis ([1]; pH 5.5 (I)): 16 µM
- MIC, B. subtilis ([1]; pH 7.4 (II)): 64 µM
- MIC, L. monocytogenes ([2]; pH 5.5 (I)): 16 µM
- MIC, L. monocytogenes ([2]; pH 7.4 (II)): 64 µM
- MIC, S. epidermidis ([3]; pH 5.5 (I)): 4 µM
- MIC, S. epidermidis ([3]; pH 7.4 (II)): 32 µM
- MIC, S. aureus (S. aureus ATCC 29213; pH 5.5 (I)): 16 µM
- MIC, S. aureus (S. aureus ATCC 29213; pH 7.4 (II)): 64 µM
- MIC, P. vulgaris ([4]; pH 5.5 (I)): 8 µM
- MIC, P. vulgaris ([4]; pH 7.4 (II)): 64 µM
- MIC, S. typhimurium ([5]; pH 5.5 (I)): 32 µM
- MIC, S. typhimurium ([5]; pH 7.4 (II)): 64 µM
- HC10 (hemolytic activity) [6]: 37
- HC50 (hemolytic activity) [6]: 64
- EC10 (effective concentration in HaCaT cells) [7]: 66

Compound: CC[C@H]1OC(=O)[C@H](C)[C@@H](O[C@H]2C[C@@](C)(OC)[C@@H](O)[C@H](C)O2)[C@H](C)[C@@H](O[C@@H]2O[C@H](C)C[C@H](N(C)C)[C@H]2O)[C@](C)(O)C[C@@H](C)C(=O)[C@H](C)[C@@H](O)[C@]1(C)O [erythromycin]
- MIC (S. aureus 0027): > 256 µM
- MIC (S. aureus 1630): > 256 µM
- MIC (S. aureus 1635): > 256 µM
- MIC (S. aureus 1870): > 256 µM
- MIC (S. aureus 2122): > 256 µM
- MIC (S. aureus 3126): 128 µM (≈ 93.9 µg/mL)
- MIC (S. aureus 3359): > 256 µM
- MIC (S. aureus 3511): > 256 µM
- MIC (S. aureus 3518): > 256 µM
- MIC (S. aureus 4761): > 256 µM
- MIC (S. aureus 5156): > 256 µM
- MIC (S. aureus 5157): 16 µM (≈ 11.7 µg/mL)
- MIC (S. aureus 5159): 16 µM (≈ 11.7 µg/mL)
